Measured values taken from patent publication US10202374B2, “6-aryl-4-phenylamino-quinazoline analogs as phosphoinositide-3-kinase inhibitors” (COUNCIL OF SCIENTIFIC & INDUSTRIAL RESEARCH, priority 2014, dated 2019).

molecular target: PI3K-α (Homo sapiens, UniProt P42336); test: PI3K-α assay (ADP-Glo); format: biochemical; conditions: 0.5 μM, preliminary screening
Sequence (P42336 whole entry): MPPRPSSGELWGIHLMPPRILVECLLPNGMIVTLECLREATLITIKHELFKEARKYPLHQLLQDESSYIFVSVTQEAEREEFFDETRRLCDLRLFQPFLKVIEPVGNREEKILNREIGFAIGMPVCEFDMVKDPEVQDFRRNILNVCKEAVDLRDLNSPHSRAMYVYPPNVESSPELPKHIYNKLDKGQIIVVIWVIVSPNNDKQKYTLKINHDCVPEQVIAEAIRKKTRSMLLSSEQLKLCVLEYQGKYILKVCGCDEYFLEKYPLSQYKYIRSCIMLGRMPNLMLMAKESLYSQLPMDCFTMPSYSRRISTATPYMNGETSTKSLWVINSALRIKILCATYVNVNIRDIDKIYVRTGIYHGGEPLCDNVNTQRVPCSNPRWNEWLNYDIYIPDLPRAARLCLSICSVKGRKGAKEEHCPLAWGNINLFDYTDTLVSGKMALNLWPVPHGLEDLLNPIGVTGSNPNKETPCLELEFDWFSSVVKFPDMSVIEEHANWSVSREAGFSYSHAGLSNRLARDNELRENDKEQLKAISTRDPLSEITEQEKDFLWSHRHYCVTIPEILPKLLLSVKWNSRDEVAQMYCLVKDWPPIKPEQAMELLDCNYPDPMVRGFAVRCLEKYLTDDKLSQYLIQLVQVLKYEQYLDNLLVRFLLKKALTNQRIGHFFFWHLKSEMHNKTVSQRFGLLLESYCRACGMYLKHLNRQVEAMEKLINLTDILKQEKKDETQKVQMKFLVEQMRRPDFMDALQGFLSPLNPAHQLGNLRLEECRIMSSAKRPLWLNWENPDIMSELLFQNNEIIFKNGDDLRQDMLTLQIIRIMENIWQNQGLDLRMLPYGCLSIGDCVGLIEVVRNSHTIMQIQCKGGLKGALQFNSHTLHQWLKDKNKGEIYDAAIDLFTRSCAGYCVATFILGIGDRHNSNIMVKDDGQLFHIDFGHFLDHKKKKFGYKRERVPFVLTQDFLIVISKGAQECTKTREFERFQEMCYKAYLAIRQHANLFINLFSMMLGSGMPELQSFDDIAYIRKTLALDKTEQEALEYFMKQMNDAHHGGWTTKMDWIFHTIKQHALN
Sequence (P27986 whole entry partner): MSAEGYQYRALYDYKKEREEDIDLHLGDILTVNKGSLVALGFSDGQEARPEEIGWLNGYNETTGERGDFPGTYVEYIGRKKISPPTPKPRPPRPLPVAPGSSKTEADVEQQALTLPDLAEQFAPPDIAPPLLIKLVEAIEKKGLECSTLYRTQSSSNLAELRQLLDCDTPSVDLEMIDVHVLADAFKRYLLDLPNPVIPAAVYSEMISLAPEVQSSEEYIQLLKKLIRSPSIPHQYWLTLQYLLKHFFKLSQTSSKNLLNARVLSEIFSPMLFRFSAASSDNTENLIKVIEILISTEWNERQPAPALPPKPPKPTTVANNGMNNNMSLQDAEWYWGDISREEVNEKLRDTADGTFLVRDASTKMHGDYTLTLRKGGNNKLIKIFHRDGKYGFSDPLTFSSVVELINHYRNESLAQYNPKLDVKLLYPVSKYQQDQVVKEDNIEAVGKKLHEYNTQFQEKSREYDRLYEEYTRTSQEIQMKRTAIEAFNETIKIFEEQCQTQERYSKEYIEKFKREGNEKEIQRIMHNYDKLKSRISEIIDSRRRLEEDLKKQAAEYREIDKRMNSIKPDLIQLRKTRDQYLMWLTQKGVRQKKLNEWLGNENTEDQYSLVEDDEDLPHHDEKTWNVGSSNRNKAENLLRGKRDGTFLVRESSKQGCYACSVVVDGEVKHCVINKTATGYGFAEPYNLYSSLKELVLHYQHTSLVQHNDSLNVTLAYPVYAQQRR
Protocol: The enzyme is assayed for 80 min after which 20 ul of ADP-Glo reagent is added. After a further incubation of 40 min, 40 ul of Kinase Detection Buffer is added. The assays are incubated for 40 min and then read on PerkinElmer Envision for 1 sec/well.

Compound | inhibition at 0.5 µM [%] | % Inhibition of PI3K-α at 0.5 μM [%]
N#CCc1ccc(Nc2ncnc3ccc(-c4ccccc4)cc23)cc1 [Compound 6, 6-phenyl-4-(4-cyanomethyl)phenylamino quinazoline] | 16.4 | –
N#CCc1ccc(Nc2ncnc3ccc(-c4ccc(F)cc4F)cc23)cc1 [Compound 7, 6-(2,4-difluorophenyl)-4-(4-cyanomethyl)phenylamino quinazoline] | 17 | –
N#CCc1ccc(Nc2ncnc3ccc(-c4ccccc4C=O)cc23)cc1 [Compound 8, 6-(2-formylphenyl)-4-(4-cyanomethyl)phenylamino quinazoline] | 1.3 | –
CC(=O)c1ccc(-c2ccc3ncnc(Nc4ccc(CC#N)cc4)c3c2)cc1 [Compound 9, 6-(4-acetylphenyl)-4-(4-cyanomethyl)phenylamino quinazoline] | 44 | –
N#CCc1ccc(Nc2ncnc3ccc(-c4cccc(O)c4)cc23)cc1 [Compound 10, 6-(3-hydroxyphenyl)-4-(4-cyanomethyl)phenylamino quinazoline] | – | 69.9

same assay, conditions: read-out: PI3K inhibition IC50 -α

Compound | IC50 [µM]
CC(=O)c1ccc(-c2ccc3ncnc(Nc4ccc(CC#N)cc4)c3c2)cc1 [Compound 9, 6-(4-acetylphenyl)-4-(4-cyanomethyl)phenylamino quinazoline] | 0.27
N#CCc1ccc(Nc2ncnc3ccc(-c4cccc(O)c4)cc23)cc1 [Compound 10, 6-(3-hydroxyphenyl)-4-(4-cyanomethyl)phenylamino quinazoline] | 0.115

tested on: A-375 (melanoma) cells; test: MTT cytotoxicity assay, A375; format: cell-based; conditions: Homo sapiens, 48 h treatment, read-out: Anticancer activity IC50 A375
Protocol: (§1) Compounds proposed in present invention were evaluated for their cytotoxic effect against panel of 5 cancer cell line viz. Panc-1 (pancreatic cancer), MCF-7 (breast cancer), PC-3 (prostate), HL-60 (leukemia) and A-375 (melanoma) using MTT assay. In each well of a 96-well plate, 3×10^3 cells were grown in 100 μL of medium. After 24 h, each test molecules were added to achieve a final concentration of 10 to 0.01 μmol/L, respectively. After 48 h of treatment, 20 μL of 2.5 mg/mL MTT (Organics Research, Inc.) solution in phosphate buffer saline was added to each well. […], supernatant was removed and formazan crystals were dissolved in 200 μL of DMSO. Absorbance was then measured at 570 nm using an absorbance plate reader (Bio-Rad Microplate Reader). Data are expressed as the percentage of viable cells in treated relative to non-treated conditions. Each experiment was repeated thrice and data was expressed as mean±SD of three independent experiments (Mordant, P. et al., Mol. Cancer Ther. 2010, 9, 358).

Compound | IC50 [µM]
N#CCc1ccc(Nc2ncnc3ccc(-c4ccccc4)cc23)cc1 [Compound 6, 6-phenyl-4-(4-cyanomethyl)phenylamino quinazoline] | 24
N#CCc1ccc(Nc2ncnc3ccc(-c4ccc(F)cc4F)cc23)cc1 [Compound 7, 6-(2,4-difluorophenyl)-4-(4-cyanomethyl)phenylamino quinazoline] | 9
N#CCc1ccc(Nc2ncnc3ccc(-c4ccccc4C=O)cc23)cc1 [Compound 8, 6-(2-formylphenyl)-4-(4-cyanomethyl)phenylamino quinazoline] | 39
CC(=O)c1ccc(-c2ccc3ncnc(Nc4ccc(CC#N)cc4)c3c2)cc1 [Compound 9, 6-(4-acetylphenyl)-4-(4-cyanomethyl)phenylamino quinazoline] | 32
N#CCc1ccc(Nc2ncnc3ccc(-c4cccc(O)c4)cc23)cc1 [Compound 10, 6-(3-hydroxyphenyl)-4-(4-cyanomethyl)phenylamino quinazoline] | 28

molecular target: PI3K-β (Homo sapiens, UniProt P42338); test: PI3K-β assay (ADP-Glo); format: biochemical; conditions: read-out: PI3K inhibition IC50 -β
Sequence (P42338 whole entry, species assumed): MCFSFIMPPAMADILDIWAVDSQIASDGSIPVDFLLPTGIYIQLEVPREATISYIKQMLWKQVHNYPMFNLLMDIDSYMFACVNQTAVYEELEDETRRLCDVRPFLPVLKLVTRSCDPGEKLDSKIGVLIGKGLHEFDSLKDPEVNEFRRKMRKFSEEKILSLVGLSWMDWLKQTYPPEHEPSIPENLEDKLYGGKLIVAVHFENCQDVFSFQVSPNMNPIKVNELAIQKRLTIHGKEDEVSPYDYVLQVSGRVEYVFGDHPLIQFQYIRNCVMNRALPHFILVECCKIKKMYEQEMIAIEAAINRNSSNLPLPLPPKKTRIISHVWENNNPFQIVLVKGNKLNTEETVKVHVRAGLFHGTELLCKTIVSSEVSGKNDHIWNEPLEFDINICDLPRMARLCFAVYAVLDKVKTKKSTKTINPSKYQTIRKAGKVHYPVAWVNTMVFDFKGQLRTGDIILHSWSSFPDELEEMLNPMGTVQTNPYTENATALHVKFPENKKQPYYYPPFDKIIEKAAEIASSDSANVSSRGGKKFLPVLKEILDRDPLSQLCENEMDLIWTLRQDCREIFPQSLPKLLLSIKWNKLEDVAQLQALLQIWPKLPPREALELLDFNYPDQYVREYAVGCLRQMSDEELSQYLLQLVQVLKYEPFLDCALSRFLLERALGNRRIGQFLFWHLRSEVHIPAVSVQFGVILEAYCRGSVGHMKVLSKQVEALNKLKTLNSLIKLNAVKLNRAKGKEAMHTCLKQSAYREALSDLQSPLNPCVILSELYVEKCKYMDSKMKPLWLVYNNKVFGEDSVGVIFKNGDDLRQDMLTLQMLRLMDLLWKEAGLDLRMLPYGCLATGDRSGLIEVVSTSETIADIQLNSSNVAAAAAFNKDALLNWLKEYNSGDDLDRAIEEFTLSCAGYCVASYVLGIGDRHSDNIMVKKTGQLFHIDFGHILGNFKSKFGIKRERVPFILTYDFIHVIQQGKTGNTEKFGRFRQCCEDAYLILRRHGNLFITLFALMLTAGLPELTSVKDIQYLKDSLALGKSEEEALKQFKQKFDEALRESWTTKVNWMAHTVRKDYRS
Sequence (P27986 whole entry partner, species assumed): as the sequence (P27986 whole entry partner) above
Protocol: The enzyme is assayed for 60 min after which 20 ul of ADP-Glo reagent is added. After a further incubation of 40 min, 40 ul of kinase detection Buffer is added. The assays are incubated for 40 min and then read on PerkinElmer Envision for 1 sec/well.

Compound | IC50 [µM]
CC(=O)c1ccc(-c2ccc3ncnc(Nc4ccc(CC#N)cc4)c3c2)cc1 [Compound 9, 6-(4-acetylphenyl)-4-(4-cyanomethyl)phenylamino quinazoline] | > 10
N#CCc1ccc(Nc2ncnc3ccc(-c4cccc(O)c4)cc23)cc1 [Compound 10, 6-(3-hydroxyphenyl)-4-(4-cyanomethyl)phenylamino quinazoline] | 0.67

same assay, conditions: α versus β isoform

Compound | Fold-selectivity for PI3K-α with respect to -β [fold]
CC(=O)c1ccc(-c2ccc3ncnc(Nc4ccc(CC#N)cc4)c3c2)cc1 [Compound 9, 6-(4-acetylphenyl)-4-(4-cyanomethyl)phenylamino quinazoline] | >37
N#CCc1ccc(Nc2ncnc3ccc(-c4cccc(O)c4)cc23)cc1 [Compound 10, 6-(3-hydroxyphenyl)-4-(4-cyanomethyl)phenylamino quinazoline] | 5.8

tested on: PC-3 (prostate cancer) cells; test: MTT cytotoxicity assay, PC-3; format: cell-based; conditions: Homo sapiens, 48 h treatment, read-out: Anticancer activity IC50 PC-3
Protocol: as §1

Compound | IC50 [µM]
N#CCc1ccc(Nc2ncnc3ccc(-c4ccccc4)cc23)cc1 [Compound 6, 6-phenyl-4-(4-cyanomethyl)phenylamino quinazoline] | 27
N#CCc1ccc(Nc2ncnc3ccc(-c4ccc(F)cc4F)cc23)cc1 [Compound 7, 6-(2,4-difluorophenyl)-4-(4-cyanomethyl)phenylamino quinazoline] | 28
N#CCc1ccc(Nc2ncnc3ccc(-c4ccccc4C=O)cc23)cc1 [Compound 8, 6-(2-formylphenyl)-4-(4-cyanomethyl)phenylamino quinazoline] | 21
CC(=O)c1ccc(-c2ccc3ncnc(Nc4ccc(CC#N)cc4)c3c2)cc1 [Compound 9, 6-(4-acetylphenyl)-4-(4-cyanomethyl)phenylamino quinazoline] | 24
N#CCc1ccc(Nc2ncnc3ccc(-c4cccc(O)c4)cc23)cc1 [Compound 10, 6-(3-hydroxyphenyl)-4-(4-cyanomethyl)phenylamino quinazoline] | 37

tested on: HL-60 (leukemia) cells; test: MTT cytotoxicity assay, HL-60; format: cell-based; conditions: Homo sapiens, 48 h treatment, read-out: Anticancer activity IC50 HL-60
Protocol: as §1

Compound | IC50 [µM]
N#CCc1ccc(Nc2ncnc3ccc(-c4ccccc4)cc23)cc1 [Compound 6, 6-phenyl-4-(4-cyanomethyl)phenylamino quinazoline] | 32
N#CCc1ccc(Nc2ncnc3ccc(-c4ccc(F)cc4F)cc23)cc1 [Compound 7, 6-(2,4-difluorophenyl)-4-(4-cyanomethyl)phenylamino quinazoline] | 7
N#CCc1ccc(Nc2ncnc3ccc(-c4ccccc4C=O)cc23)cc1 [Compound 8, 6-(2-formylphenyl)-4-(4-cyanomethyl)phenylamino quinazoline] | 42
CC(=O)c1ccc(-c2ccc3ncnc(Nc4ccc(CC#N)cc4)c3c2)cc1 [Compound 9, 6-(4-acetylphenyl)-4-(4-cyanomethyl)phenylamino quinazoline] | 28
N#CCc1ccc(Nc2ncnc3ccc(-c4cccc(O)c4)cc23)cc1 [Compound 10, 6-(3-hydroxyphenyl)-4-(4-cyanomethyl)phenylamino quinazoline] | 24

tested on: Panc-1 (pancreatic cancer) cells; test: MTT cytotoxicity assay, Panc-1; format: cell-based; conditions: Homo sapiens, 48 h treatment, read-out: Anticancer activity IC50 Panc-1
Protocol: as §1

Compound | IC50 [µM]
N#CCc1ccc(Nc2ncnc3ccc(-c4ccccc4)cc23)cc1 [Compound 6, 6-phenyl-4-(4-cyanomethyl)phenylamino quinazoline] | 40
N#CCc1ccc(Nc2ncnc3ccc(-c4ccc(F)cc4F)cc23)cc1 [Compound 7, 6-(2,4-difluorophenyl)-4-(4-cyanomethyl)phenylamino quinazoline] | 21
N#CCc1ccc(Nc2ncnc3ccc(-c4ccccc4C=O)cc23)cc1 [Compound 8, 6-(2-formylphenyl)-4-(4-cyanomethyl)phenylamino quinazoline] | 90
CC(=O)c1ccc(-c2ccc3ncnc(Nc4ccc(CC#N)cc4)c3c2)cc1 [Compound 9, 6-(4-acetylphenyl)-4-(4-cyanomethyl)phenylamino quinazoline] | 13
N#CCc1ccc(Nc2ncnc3ccc(-c4cccc(O)c4)cc23)cc1 [Compound 10, 6-(3-hydroxyphenyl)-4-(4-cyanomethyl)phenylamino quinazoline] | 36

tested on: MCF-7 (breast cancer) cells; test: MTT cytotoxicity assay, MCF-7; format: cell-based; conditions: Homo sapiens, MCF7, 48 h treatment, read-out: Anticancer activity IC50 MCF-7
Protocol: as §1

Compound | IC50 [µM]
N#CCc1ccc(Nc2ncnc3ccc(-c4ccccc4)cc23)cc1 [Compound 6, 6-phenyl-4-(4-cyanomethyl)phenylamino quinazoline] | 23
N#CCc1ccc(Nc2ncnc3ccc(-c4ccc(F)cc4F)cc23)cc1 [Compound 7, 6-(2,4-difluorophenyl)-4-(4-cyanomethyl)phenylamino quinazoline] | 10
N#CCc1ccc(Nc2ncnc3ccc(-c4ccccc4C=O)cc23)cc1 [Compound 8, 6-(2-formylphenyl)-4-(4-cyanomethyl)phenylamino quinazoline] | 91
CC(=O)c1ccc(-c2ccc3ncnc(Nc4ccc(CC#N)cc4)c3c2)cc1 [Compound 9, 6-(4-acetylphenyl)-4-(4-cyanomethyl)phenylamino quinazoline] | 45
N#CCc1ccc(Nc2ncnc3ccc(-c4cccc(O)c4)cc23)cc1 [Compound 10, 6-(3-hydroxyphenyl)-4-(4-cyanomethyl)phenylamino quinazoline] | 15

molecular target: PI3K-δ (Homo sapiens, UniProt O00329); test: PI3K-δ assay (ADP-Glo); format: biochemical; conditions: read-out: PI3K inhibition IC50 -δ
Sequence (O00329 whole entry, species assumed): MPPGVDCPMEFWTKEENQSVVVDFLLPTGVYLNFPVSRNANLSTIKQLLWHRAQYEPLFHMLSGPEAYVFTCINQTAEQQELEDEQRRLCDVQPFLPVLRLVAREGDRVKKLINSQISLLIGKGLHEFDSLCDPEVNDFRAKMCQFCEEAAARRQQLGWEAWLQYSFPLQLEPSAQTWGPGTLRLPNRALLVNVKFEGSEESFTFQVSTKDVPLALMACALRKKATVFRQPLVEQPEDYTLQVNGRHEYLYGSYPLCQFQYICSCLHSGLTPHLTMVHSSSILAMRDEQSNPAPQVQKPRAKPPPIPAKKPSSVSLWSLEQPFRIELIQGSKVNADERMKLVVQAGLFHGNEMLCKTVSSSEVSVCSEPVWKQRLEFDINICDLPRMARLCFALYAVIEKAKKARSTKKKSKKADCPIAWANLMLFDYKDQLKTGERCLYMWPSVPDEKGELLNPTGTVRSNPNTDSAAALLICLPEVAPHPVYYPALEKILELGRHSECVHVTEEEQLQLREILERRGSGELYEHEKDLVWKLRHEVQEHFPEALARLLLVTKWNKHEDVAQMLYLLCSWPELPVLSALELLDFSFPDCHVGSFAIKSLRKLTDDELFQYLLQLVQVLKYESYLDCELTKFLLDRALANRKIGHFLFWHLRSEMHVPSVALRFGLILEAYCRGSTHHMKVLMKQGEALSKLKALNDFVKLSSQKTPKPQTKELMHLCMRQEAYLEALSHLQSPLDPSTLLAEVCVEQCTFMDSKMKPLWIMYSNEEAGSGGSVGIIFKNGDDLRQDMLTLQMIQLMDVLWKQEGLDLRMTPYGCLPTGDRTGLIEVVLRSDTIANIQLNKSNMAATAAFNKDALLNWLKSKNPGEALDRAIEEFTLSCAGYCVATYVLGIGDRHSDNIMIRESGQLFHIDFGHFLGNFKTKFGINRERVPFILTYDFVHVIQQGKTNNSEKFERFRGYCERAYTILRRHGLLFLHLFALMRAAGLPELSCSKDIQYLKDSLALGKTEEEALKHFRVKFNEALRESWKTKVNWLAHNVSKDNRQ
Sequence (P27986 whole entry partner, species assumed): as the sequence (P27986 whole entry partner) above
Protocol: Compounds proposed in present invention were evaluated for their inhibitory activity on phosphoinositide-3-kinase-alpha and other isoforms (beta, gamma and delta). […] The protocols used for these bioassays are as follows:
The enzyme is assayed for 120 min after which 20 ul of ADP-Glo reagent is added. After a further incubation of 40 min, 40 ul of Kinase Detection Buffer is added. The assays are incubated for 40 min and then read on PerkinElmer Envision for 1 sec/well.

Compound | IC50 [µM]
CC(=O)c1ccc(-c2ccc3ncnc(Nc4ccc(CC#N)cc4)c3c2)cc1 [Compound 9, 6-(4-acetylphenyl)-4-(4-cyanomethyl)phenylamino quinazoline] | > 10
N#CCc1ccc(Nc2ncnc3ccc(-c4cccc(O)c4)cc23)cc1 [Compound 10, 6-(3-hydroxyphenyl)-4-(4-cyanomethyl)phenylamino quinazoline] | 0.27

same assay, conditions: α versus δ isoform

Compound | Fold-selectivity for PI3K-α with respect to -δ [fold]
CC(=O)c1ccc(-c2ccc3ncnc(Nc4ccc(CC#N)cc4)c3c2)cc1 [Compound 9, 6-(4-acetylphenyl)-4-(4-cyanomethyl)phenylamino quinazoline] | >37
N#CCc1ccc(Nc2ncnc3ccc(-c4cccc(O)c4)cc23)cc1 [Compound 10, 6-(3-hydroxyphenyl)-4-(4-cyanomethyl)phenylamino quinazoline] | 2.3

molecular target: PI3K-γ (Homo sapiens, UniProt P48736); test: PI3K-γ assay (ADP-Glo); format: biochemical; conditions: read-out: PI3K inhibition IC50 -γ
Sequence (P48736 whole entry, species assumed): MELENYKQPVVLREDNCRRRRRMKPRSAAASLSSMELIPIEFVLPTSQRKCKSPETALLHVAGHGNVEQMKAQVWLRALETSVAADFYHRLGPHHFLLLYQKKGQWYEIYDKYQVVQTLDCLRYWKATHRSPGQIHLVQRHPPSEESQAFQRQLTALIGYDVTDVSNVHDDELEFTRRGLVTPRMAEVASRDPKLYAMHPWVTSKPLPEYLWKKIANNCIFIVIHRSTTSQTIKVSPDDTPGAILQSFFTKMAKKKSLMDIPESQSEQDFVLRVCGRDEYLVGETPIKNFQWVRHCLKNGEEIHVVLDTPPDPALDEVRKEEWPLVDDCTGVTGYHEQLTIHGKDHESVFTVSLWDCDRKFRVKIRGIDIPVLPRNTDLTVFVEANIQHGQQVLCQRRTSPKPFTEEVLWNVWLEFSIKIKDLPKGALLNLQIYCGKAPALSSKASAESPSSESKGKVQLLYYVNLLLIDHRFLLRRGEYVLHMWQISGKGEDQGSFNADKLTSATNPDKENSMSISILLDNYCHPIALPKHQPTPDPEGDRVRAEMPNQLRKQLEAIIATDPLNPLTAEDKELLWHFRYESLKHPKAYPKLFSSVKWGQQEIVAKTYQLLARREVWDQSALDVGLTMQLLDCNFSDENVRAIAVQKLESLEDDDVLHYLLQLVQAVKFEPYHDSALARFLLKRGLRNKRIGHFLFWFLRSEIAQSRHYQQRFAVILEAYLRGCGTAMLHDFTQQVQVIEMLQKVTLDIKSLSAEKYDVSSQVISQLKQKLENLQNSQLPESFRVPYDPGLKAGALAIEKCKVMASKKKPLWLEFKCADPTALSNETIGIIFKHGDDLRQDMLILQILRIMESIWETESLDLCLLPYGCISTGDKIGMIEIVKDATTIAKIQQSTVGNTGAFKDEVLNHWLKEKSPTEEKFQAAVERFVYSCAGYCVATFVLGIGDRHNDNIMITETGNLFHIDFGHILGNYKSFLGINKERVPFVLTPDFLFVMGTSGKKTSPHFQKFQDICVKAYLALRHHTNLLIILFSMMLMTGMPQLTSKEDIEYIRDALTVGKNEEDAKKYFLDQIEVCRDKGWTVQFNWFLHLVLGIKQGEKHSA
Protocol: The enzyme is assayed for 75 min after which 20 ul of ADP-Glo reagent is added. After a further incubation of 40 min, 40 ul of Kinase Detection Buffer is added. The assays are incubated for 40 min and then read on PerkinElmer Envision for 1 sec/well.

Compound | IC50 [µM]
CC(=O)c1ccc(-c2ccc3ncnc(Nc4ccc(CC#N)cc4)c3c2)cc1 [Compound 9, 6-(4-acetylphenyl)-4-(4-cyanomethyl)phenylamino quinazoline] | 0.15
N#CCc1ccc(Nc2ncnc3ccc(-c4cccc(O)c4)cc23)cc1 [Compound 10, 6-(3-hydroxyphenyl)-4-(4-cyanomethyl)phenylamino quinazoline] | 1.84

same assay, conditions: α versus γ isoform

Compound | Fold-selectivity for PI3K-α with respect to -γ [fold]
CC(=O)c1ccc(-c2ccc3ncnc(Nc4ccc(CC#N)cc4)c3c2)cc1 [Compound 9, 6-(4-acetylphenyl)-4-(4-cyanomethyl)phenylamino quinazoline] | 0.5
N#CCc1ccc(Nc2ncnc3ccc(-c4cccc(O)c4)cc23)cc1 [Compound 10, 6-(3-hydroxyphenyl)-4-(4-cyanomethyl)phenylamino quinazoline] | 16
